Measurements: patent publication US20140024527A1, “HERBICIDAL PYRAZINONES” (E I DU DE NEMOURS AND COMPANY, priority 2011, published 2014)

What was measured:
Type in all cases: in vivo
[1] = tested on: barnyardgrass (Echinochloa crus-galli); test: Test A postemergence; conditions: 0 to 100 scale, 0 no effect, 100 complete control, approx. 10 days
Description: (§1) Seeds of barnyardgrass (Echinochloa crus-galli), large crabgrass (Digitaria sanguinalis), giant foxtail (Setaria faberii), morningglory (Ipomoea spp.), pigweed (Amaranthus retroflexus), velvetleaf (Abutilon theophrasti), wheat (Triticum aestivum) and corn (Zea mays) were planted into a blend of loam soil and sand and treated preemergence with a directed soil spray using test chemicals formulated in a non-phytotoxic solvent mixture which included a surfactant. At the same time these species were also treated with postemergence applications of test compounds formulated in the same manner. Plants ranged in height from 2 to 10 cm and were in the one- to two-leaf stage for the postemergence treatments. Treated plants and untreated controls were maintained in a greenhouse for approximately 10 days, after which time all treated plants were compared to untreated controls and visually evaluated for injury. Plant response ratings, summarized in Table A, are based on a 0 to 100 scale where 0 is no effect and 100 is complete control.

corn (Zea mays) [2] = test: Test A postemergence; conditions: 0 to 100 scale, 0 no effect, 100 complete control, approx. 10 days
Description: as §1

[3] = tested on: giant foxtail (Setaria faberii); test: Test A postemergence; conditions: 0 to 100 scale, 0 no effect, 100 complete control, approx. 10 days
Description: as §1

[4] = tested on: large crabgrass (Digitaria sanguinalis); test: Test A postemergence; conditions: 0 to 100 scale, 0 no effect, 100 complete control, approx. 10 days
Description: as §1

[5] = tested on: morningglory (Ipomoea spp.); test: Test A postemergence; conditions: 0 to 100 scale, 0 no effect, 100 complete control, approx. 10 days
Description: as §1

[6] = tested on: pigweed (Amaranthus retroflexus); test: Test A postemergence; conditions: 0 to 100 scale, 0 no effect, 100 complete control, approx. 10 days
Description: as §1

[7] = tested on: velvetleaf (Abutilon theophrasti); test: Test A postemergence; conditions: 0 to 100 scale, 0 no effect, 100 complete control, approx. 10 days
Description: as §1

[8] = tested on: wheat (Triticum aestivum); test: Test A postemergence; conditions: 0 to 100 scale, 0 no effect, 100 complete control, approx. 10 days
Description: as §1

[9] = tested on: barnyardgrass (Echinochloa crus-galli); test: Test A preemergence; conditions: 0 to 100 scale, 0 no effect, 100 complete control, approx. 10 days
Description: as §1

corn (Zea mays) [10] = test: Test A preemergence; conditions: 0 to 100 scale, 0 no effect, 100 complete control, approx. 10 days
Description: as §1

[11] = tested on: giant foxtail (Setaria faberii); test: Test A preemergence; conditions: 0 to 100 scale, 0 no effect, 100 complete control, approx. 10 days
Description: as §1

[12] = tested on: large crabgrass (Digitaria sanguinalis); test: Test A preemergence; conditions: 0 to 100 scale, 0 no effect, 100 complete control, approx. 10 days
Description: as §1

[13] = tested on: morningglory (Ipomoea spp.); test: Test A preemergence; conditions: 0 to 100 scale, 0 no effect, 100 complete control, approx. 10 days
Description: as §1

[14] = tested on: pigweed (Amaranthus retroflexus); test: Test A preemergence; conditions: 0 to 100 scale, 0 no effect, 100 complete control, approx. 10 days
Description: as §1

[15] = tested on: velvetleaf (Abutilon theophrasti); test: Test A preemergence; conditions: 0 to 100 scale, 0 no effect, 100 complete control, approx. 10 days
Description: as §1

[16] = tested on: wheat (Triticum aestivum); test: Test A preemergence; conditions: 0 to 100 scale, 0 no effect, 100 complete control, approx. 10 days
Description: as §1

[17] = tested on: barnyardgrass (Echinochloa crus-galli); test: Test B flooded paddy test; conditions: Flood
Description: (§2) Plant species in the flooded paddy test consisted of rice (Oryza sativa), umbrella sedge (Cyperus difformis), ducksalad (Heteranthera limosa) and barnyardgrass (Echinochloa crus-galli) grown to the 2-leaf stage for testing. At time of treatment, test pots were flooded to 3 cm above the soil surface, treated by application of test compounds directly to the paddy water, and then maintained at that water depth for the duration of the test. Treated plants and controls were maintained in a greenhouse for 13 to 15 days, after which time all species were compared to controls and visually evaluated. Plant response ratings, summarized in Table B, are based on a scale of 0 to 100 where 0 is no effect and 100 is complete control. A dash (-) response means no test result.

[18] = tested on: ducksalad (Heteranthera limosa); test: Test B flooded paddy test; conditions: Flood, scale 0 to 100
Description: as §2

rice (Oryza sativa) = test: Test B flooded paddy test; conditions: Flood, scale 0 to 100
Description: as §2

[19] = tested on: umbrella sedge (Cyperus difformis); test: Test B flooded paddy test; conditions: Flood, scale 0 to 100
Description: as §2

[20] = 250 g ai/ha, scale 0 to 100 (0 no effect, 100 complete control)

Question: What does the source list for `CCCCn1c(-c2ccccc2)cnc(C(=O)C2=C(O)CCCC2=O)c1=O` [Compound 1, 1-butyl-3-[(2-hydroxy-6-oxo-1-cyclohexen-1-yl)carbonyl]-6-phenyl-2(1H)-pyrazinone]?
Answer: Plant response rating, Barnyardgrass ([1]; 125 g ai/ha): 10; Plant response rating, Barnyardgrass ([1]; 500 g ai/ha): 80; Plant response rating, Corn (corn (Zea mays) [2]; 125 g ai/ha): 0; Plant response rating, Corn (corn (Zea mays) [2]; 500 g ai/ha): 10; Plant response rating, Foxtail, Giant ([3]; 125 g ai/ha): 10; Plant response rating, Foxtail, Giant ([3]; 500 g ai/ha): 40; Plant response rating, Crabgrass, Large ([4]; 125 g ai/ha): 10; Plant response rating, Crabgrass, Large ([4]; 500 g ai/ha): 50; Plant response rating, Morningglory ([5]; 125 g ai/ha): 40; Plant response rating, Morningglory ([5]; 500 g ai/ha): 100; Plant response rating, Pigweed ([6]; 125 g ai/ha): 60; Plant response rating, Pigweed ([6]; 500 g ai/ha): 100; Plant response rating, Velvetleaf ([7]; 125 g ai/ha): 100; Plant response rating, Velvetleaf ([7]; 500 g ai/ha): 100; Plant response rating, Wheat ([8]; 125 g ai/ha): 0; Plant response rating, Wheat ([8]; 500 g ai/ha): 0; Plant response rating, Barnyardgrass ([9]; 125 g ai/ha): 0; Plant response rating, Barnyardgrass ([9]; 500 g ai/ha): 80; Plant response rating, Corn (corn (Zea mays) [10]; 125 g ai/ha): 0; Plant response rating, Corn (corn (Zea mays) [10]; 500 g ai/ha): 0; Plant response rating, Foxtail, Giant ([11]; 125 g ai/ha): 0; Plant response rating, Foxtail, Giant ([11]; 500 g ai/ha): 30; Plant response rating, Crabgrass, Large ([12]; 125 g ai/ha): 10; Plant response rating, Crabgrass, Large ([12]; 500 g ai/ha): 40; Plant response rating, Morningglory ([13]; 125 g ai/ha): 0; Plant response rating, Morningglory ([13]; 500 g ai/ha): 70; Plant response rating, Pigweed ([14]; 125 g ai/ha): 60; Plant response rating, Pigweed ([14]; 500 g ai/ha): 100; Plant response rating, Velvetleaf ([15]; 125 g ai/ha): 50; Plant response rating, Velvetleaf ([15]; 500 g ai/ha): 100; Plant response rating, Wheat ([16]; 125 g ai/ha): 0; Plant response rating, Wheat ([16]; 500 g ai/ha): 0; Plant response rating, Barnyardgrass ([17]; 62 g ai/ha, scale 0 to 100): 60; Plant response rating, Barnyardgrass [17, 20]: 80; Plant response rating, Ducksalad ([18]; 62 g ai/ha): 60; Plant response rating, Ducksalad ([18]; 250 g ai/ha): 95; Plant response rating, Rice (rice (Oryza sativa); 62 g ai/ha): 70; Plant response rating, Rice (rice (Oryza sativa); 250 g ai/ha): 85; Plant response rating, Sedge, Umbrella ([19]; 62 g ai/ha): 70; Plant response rating, Sedge, Umbrella ([19]; 250 g ai/ha): 95

Question: With `COCCn1c(-c2cccc(F)c2)c(Cl)nc(C(=O)C2=C(O)CCCC2=O)c1=O` [Compound 7, 5-chloro-6-(3-fluorophenyl)-3-[(2-hydroxy-6-oxo-1-cyclohexen-1-yl)carbonyl]-1-(2-methoxyethyl)-2(1H)pyrazinone] as the molecule, how does the “Plant response rating, Barnyardgrass” value ([1]; 125 g ai/ha) read?
Answer: 20

Question: What about the “Plant response rating, Barnyardgrass” value ([1]; 500 g ai/ha) of the same molecule?
Answer: 80

Question: And the “Plant response rating, Corn” value (corn (Zea mays) [2]; 125 g ai/ha)?
Answer: 0

Question: What about the “Plant response rating, Corn” value (corn (Zea mays) [2]; 500 g ai/ha) of the same molecule?
Answer: 20

Question: And the “Plant response rating, Foxtail, Giant” value ([3]; 125 g ai/ha)?
Answer: 0

Question: And the “Plant response rating, Foxtail, Giant” value ([3]; 500 g ai/ha)?
Answer: 0

Question: What about the “Plant response rating, Crabgrass, Large” value ([4]; 125 g ai/ha) of the same molecule?
Answer: 0

Question: And the “Plant response rating, Crabgrass, Large” value ([4]; 500 g ai/ha)?
Answer: 10

Question: What about the “Plant response rating, Morningglory” value ([5]; 125 g ai/ha) of the same molecule?
Answer: 80

Question: And the “Plant response rating, Morningglory” value ([5]; 500 g ai/ha)?
Answer: 90

Question: And the “Plant response rating, Pigweed” value ([6]; 125 g ai/ha)?
Answer: 80

Question: And the “Plant response rating, Pigweed” value ([6]; 500 g ai/ha)?
Answer: 90

Question: And the “Plant response rating, Velvetleaf” value ([7]; 125 g ai/ha)?
Answer: 100

Question: And the “Plant response rating, Velvetleaf” value ([7]; 500 g ai/ha)?
Answer: 100

Question: What about the “Plant response rating, Wheat” value ([8]; 125 g ai/ha) of the same molecule?
Answer: 0

Question: What about the “Plant response rating, Wheat” value ([8]; 500 g ai/ha) of the same molecule?
Answer: 0

Question: What about the “Plant response rating, Barnyardgrass” value ([9]; 125 g ai/ha) of the same molecule?
Answer: 0

Question: And the “Plant response rating, Barnyardgrass” value ([9]; 500 g ai/ha)?
Answer: 10

Question: And the “Plant response rating, Corn” value (corn (Zea mays) [10]; 125 g ai/ha)?
Answer: 0

Question: And the “Plant response rating, Corn” value (corn (Zea mays) [10]; 500 g ai/ha)?
Answer: 0

Question: And the “Plant response rating, Foxtail, Giant” value ([11]; 125 g ai/ha)?
Answer: 0

Question: What about the “Plant response rating, Foxtail, Giant” value ([11]; 500 g ai/ha) of the same molecule?
Answer: 0

Question: And the “Plant response rating, Crabgrass, Large” value ([12]; 125 g ai/ha)?
Answer: 0

Question: What about the “Plant response rating, Crabgrass, Large” value ([12]; 500 g ai/ha) of the same molecule?
Answer: 0

Question: And the “Plant response rating, Morningglory” value ([13]; 125 g ai/ha)?
Answer: 0

Question: What about the “Plant response rating, Morningglory” value ([13]; 500 g ai/ha) of the same molecule?
Answer: 20

Question: And the “Plant response rating, Pigweed” value ([14]; 125 g ai/ha)?
Answer: 0

Question: And the “Plant response rating, Pigweed” value ([14]; 500 g ai/ha)?
Answer: 50

Question: And the “Plant response rating, Velvetleaf” value ([15]; 125 g ai/ha)?
Answer: 0

Question: And the “Plant response rating, Velvetleaf” value ([15]; 500 g ai/ha)?
Answer: 20

Question: What about the “Plant response rating, Wheat” value ([16]; 125 g ai/ha) of the same molecule?
Answer: 0

Question: What about the “Plant response rating, Wheat” value ([16]; 500 g ai/ha) of the same molecule?
Answer: 0

Question: What about the “Plant response rating, Barnyardgrass” value ([17]; 31 g ai/ha, scale 0 to 100) of the same molecule?
Answer: 0

Question: And the “Plant response rating, Barnyardgrass” value ([17]; 62 g ai/ha, scale 0 to 100)?
Answer: 0

Question: What about the “Plant response rating, Barnyardgrass” value ([17]; 125 g ai/ha, scale 0 to 100) of the same molecule?
Answer: 10

Question: And the “Plant response rating, Barnyardgrass” value [17, 20]?
Answer: 20

Question: And the “Plant response rating, Ducksalad” value ([18]; 31 g ai/ha)?
Answer: 0

Question: What about the “Plant response rating, Ducksalad” value ([18]; 62 g ai/ha) of the same molecule?
Answer: 40

Question: And the “Plant response rating, Ducksalad” value ([18]; 125 g ai/ha)?
Answer: 50

Question: And the “Plant response rating, Ducksalad” value ([18]; 250 g ai/ha)?
Answer: 80

Question: And the “Plant response rating, Rice” value (rice (Oryza sativa); 31 g ai/ha)?
Answer: 0

Question: And the “Plant response rating, Rice” value (rice (Oryza sativa); 62 g ai/ha)?
Answer: 0

Question: What about the “Plant response rating, Rice” value (rice (Oryza sativa); 125 g ai/ha) of the same molecule?
Answer: 0

Question: What about the “Plant response rating, Rice” value (rice (Oryza sativa); 250 g ai/ha) of the same molecule?
Answer: 15

Question: And the “Plant response rating, Sedge, Umbrella” value ([19]; 31 g ai/ha)?
Answer: 0

Question: And the “Plant response rating, Sedge, Umbrella” value ([19]; 62 g ai/ha)?
Answer: 20

Question: And the “Plant response rating, Sedge, Umbrella” value ([19]; 125 g ai/ha)?
Answer: 50

Question: And the “Plant response rating, Sedge, Umbrella” value ([19]; 250 g ai/ha)?
Answer: 75
